This passage reports IC50 and Ki results from ChEMBL document CHEMBL1909046, “DrugMatrix in vitro pharmacology data”.

Assay [1] in a line: DRUGMATRIX: Phosphodiesterase PDE4 enzyme inhibition (substrate: [3H]cAMP + cAMP). Particulars: u-937, Not Active = under 50% inhibition at 10 µM.
For assay [2], the target named is Receptor tyrosine-protein kinase erbB-2 (Homo sapiens, UniProt P04626). It counts as cell-based. The note with it: insect cells.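 Also: inhibition of HER2 kinase enzyme activity, measured with Poly(Glu:Tyr) as the phosphorylation substrate; in other assays of this panel Not Active means under 50% inhibition at 10 µM.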
Chain of Receptor tyrosine-protein kinase erbB-2 (P04626 whole entry): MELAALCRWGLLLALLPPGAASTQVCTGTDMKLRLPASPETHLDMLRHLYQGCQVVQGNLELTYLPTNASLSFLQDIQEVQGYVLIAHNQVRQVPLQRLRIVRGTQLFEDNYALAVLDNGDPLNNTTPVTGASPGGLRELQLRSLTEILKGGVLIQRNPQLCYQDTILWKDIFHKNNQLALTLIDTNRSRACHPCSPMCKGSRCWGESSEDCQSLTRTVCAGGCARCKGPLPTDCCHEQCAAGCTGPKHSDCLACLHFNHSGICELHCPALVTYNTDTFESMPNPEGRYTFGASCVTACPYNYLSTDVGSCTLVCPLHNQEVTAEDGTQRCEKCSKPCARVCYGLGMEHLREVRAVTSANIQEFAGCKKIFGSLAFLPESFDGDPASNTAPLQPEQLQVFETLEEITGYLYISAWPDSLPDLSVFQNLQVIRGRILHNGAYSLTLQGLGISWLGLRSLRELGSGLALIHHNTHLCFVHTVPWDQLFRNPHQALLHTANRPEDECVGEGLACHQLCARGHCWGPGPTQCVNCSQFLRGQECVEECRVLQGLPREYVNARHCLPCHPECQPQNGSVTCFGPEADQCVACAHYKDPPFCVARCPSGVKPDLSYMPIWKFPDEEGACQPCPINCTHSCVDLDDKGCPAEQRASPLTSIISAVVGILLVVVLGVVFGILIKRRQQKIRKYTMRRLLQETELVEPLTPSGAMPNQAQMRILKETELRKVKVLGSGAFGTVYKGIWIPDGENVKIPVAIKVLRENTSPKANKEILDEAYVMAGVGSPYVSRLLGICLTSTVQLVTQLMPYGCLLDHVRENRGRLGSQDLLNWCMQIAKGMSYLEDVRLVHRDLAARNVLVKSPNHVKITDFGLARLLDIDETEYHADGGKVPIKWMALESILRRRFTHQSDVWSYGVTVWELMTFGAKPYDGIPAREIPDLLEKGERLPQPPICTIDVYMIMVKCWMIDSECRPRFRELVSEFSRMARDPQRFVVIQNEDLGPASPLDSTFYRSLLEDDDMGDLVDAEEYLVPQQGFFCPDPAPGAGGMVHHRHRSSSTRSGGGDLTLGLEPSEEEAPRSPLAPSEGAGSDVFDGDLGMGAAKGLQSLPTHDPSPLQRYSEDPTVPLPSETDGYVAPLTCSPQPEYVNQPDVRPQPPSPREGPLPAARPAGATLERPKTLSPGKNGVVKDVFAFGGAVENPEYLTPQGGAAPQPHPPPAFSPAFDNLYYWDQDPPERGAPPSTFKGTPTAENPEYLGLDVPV
Another assay addresses T1, Cathepsin G (Homo sapiens, UniProt P08311).
T1 sequence (P08311 whole entry): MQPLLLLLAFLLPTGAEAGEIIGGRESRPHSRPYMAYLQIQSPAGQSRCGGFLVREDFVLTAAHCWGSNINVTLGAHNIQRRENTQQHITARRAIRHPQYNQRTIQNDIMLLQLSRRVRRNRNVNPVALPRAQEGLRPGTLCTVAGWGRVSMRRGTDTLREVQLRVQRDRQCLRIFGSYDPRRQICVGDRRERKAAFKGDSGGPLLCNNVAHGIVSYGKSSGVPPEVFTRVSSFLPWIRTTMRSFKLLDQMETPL
As to the kind of experiment: biochemical. Particulars: neutrophil. It is filed as tissue-based, Neutrophil.

Assay [3] has as its target Mitogen-activated protein kinase 3 (Homo sapiens, UniProt P27361). As to the kind of experiment: DRUGMATRIX: Protein Serine/Threonine Kinase, ERK1 enzyme inhibition (substrate: Myelin Basic Protein). The arrangement: species or system Escherichia coli. The note with it: Not Active = under 50% inhibition at 10 µM.
In assay [4] the target is T2, Neuropeptide Y receptor type 2 (Homo sapiens, UniProt P49146). Also: in other assays of this panel Not Active means under 50% inhibition at 10 µM.
T2 sequence (P49146 whole entry): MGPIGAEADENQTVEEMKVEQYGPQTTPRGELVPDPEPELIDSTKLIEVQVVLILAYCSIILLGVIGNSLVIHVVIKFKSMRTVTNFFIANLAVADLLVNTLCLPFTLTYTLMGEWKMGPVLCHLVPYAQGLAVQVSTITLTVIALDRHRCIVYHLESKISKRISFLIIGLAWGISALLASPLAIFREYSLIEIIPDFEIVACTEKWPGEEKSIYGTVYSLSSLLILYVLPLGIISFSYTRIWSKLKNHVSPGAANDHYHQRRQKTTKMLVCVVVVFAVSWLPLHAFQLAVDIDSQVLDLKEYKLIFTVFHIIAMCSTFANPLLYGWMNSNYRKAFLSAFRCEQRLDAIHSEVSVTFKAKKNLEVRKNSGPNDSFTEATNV
It is filed as cell membranes, Membrane. Particulars: kan-ts.

Assay [5] in a line: DRUGMATRIX: Calcium Channel Type L, Dihydropyridine radioligand binding (ligand: [3H] Nitrendipine). It is filed as cell membranes, Rattus norvegicus, Wistar, Cerebral cortex, Membrane. The note with it: Not Active = under 50% inhibition at 10 µM.
The target of a further assay is Carbonic anhydrase 2 (Homo sapiens, UniProt P00918). As to the kind of experiment: DRUGMATRIX: Carbonic Anhydrase II enzyme inhibition (substrate: 4-Nitrophenyl acetate (4-NPA)). It counts as tissue-based, Erythrocyte. Particulars: erythrocyte; Not Active = under 50% inhibition at 10 µM.

Chain of Mitogen-activated protein kinase 3 (P27361 whole entry): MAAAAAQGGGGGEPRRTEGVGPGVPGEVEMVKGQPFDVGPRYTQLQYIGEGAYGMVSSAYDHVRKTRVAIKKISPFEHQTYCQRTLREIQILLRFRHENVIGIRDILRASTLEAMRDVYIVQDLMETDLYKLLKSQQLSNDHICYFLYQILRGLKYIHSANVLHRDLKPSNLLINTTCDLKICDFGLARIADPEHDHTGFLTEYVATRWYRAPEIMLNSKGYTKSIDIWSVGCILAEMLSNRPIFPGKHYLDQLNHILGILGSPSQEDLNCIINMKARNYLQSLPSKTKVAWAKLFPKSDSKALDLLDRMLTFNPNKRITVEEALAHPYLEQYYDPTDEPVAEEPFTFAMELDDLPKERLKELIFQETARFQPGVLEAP

In the case of `C#C[C@]1(O)CC[C@H]2[C@@H]3[C@H](C)CC4=C(CCC(=O)C4)[C@H]3CC[C@@]21C` [TIBOLONE], the IC50 entry (in assay [1]; in assay [2]; at Cathepsin G; in assay [3]; in assay [4]; in assay [5]) was “Not Active” each time. In addition, the IC50 entry against Carbonic anhydrase 2 is listed as “Not Active”. The Ki entry in assay [1] and in assay [5] was “Not Active” in each case.
Take `C[C@]12CCC(=O)C[C@@H]1CC[C@@H]1[C@@H]2CC[C@]2(C)[C@@H](O)CC[C@@H]12` [STANOLONE]: the IC50 entry (in assay [1]; in assay [2]; on Cathepsin G; in assay [3]; in assay [4]; in assay [5]) was “Not Active” each time. In addition, the IC50 result on Carbonic anhydrase 2 is “Not Active”. Also, the Ki result in assay [1] and in assay [5] was “Not Active” each time.
Take `CC(C)(C)NC[C@H](O)COc1cccc2c1CCCC2=O` [LEVOBUNOLOL]: the IC50 result (in assay [1]; in assay [2]; at Cathepsin G; in assay [3]; in assay [4]; in assay [5]) was “Not Active” each time. Moreover, at Carbonic anhydrase 2, the IC50 result is recorded as “Not Active”. In addition, the Ki result in assay [1] and in assay [5] was “Not Active” each time.
Consider `CCN1CCCC1CNC(=O)c1cc(S(N)(=O)=O)ccc1OC` (stereo not given) [SULPIRIDE], for which the IC50 entry (in assay [1]; in assay [2]; against Cathepsin G; in assay [3]; in assay [4]; in assay [5]) was “Not Active” throughout. The Ki entry in assay [1] and in assay [5] was “Not Active” throughout.
In the case of `CCN(CC)C(=S)SSC(=S)N(CC)CC`, the IC50 was 4.8 µM in assay [1] (read-out: IC50); “Not Active” in assay [2]; “Not Active” on Cathepsin G; 1.51 µM in assay [3] (read-out: IC50); “Not Active” in assay [4]; “Not Active” in assay [5]. Also, the IC50 result against Carbonic anhydrase 2 is listed as “Not Active”. For the same compound, in assay [5], the Ki result is “Not Active”.
Consider `OC[C@@H](O)[C@@H](O)[C@H](O)[C@H](O)CO` [MANNITOL], for which the IC50 result (in assay [1]; in assay [2]; against Cathepsin G; in assay [3]; in assay [4]; in assay [5]) was “Not Active” in each case. For the same compound, the IC50 result against Carbonic anhydrase 2 was “Not Active”. Moreover, the Ki result in assay [1] and in assay [5] was “Not Active” each time.
For `C[N+]1(C)[C@@H]2C[C@@H](OC(=O)[C@H](CO)c3ccccc3)C[C@H]1[C@@H]1O[C@@H]12.[Br-]` [METHSCOPOLAMINE BROMIDE], the IC50 result (in assay [1]; in assay [2]; at Cathepsin G; in assay [3]; in assay [4]; in assay [5]) was “Not Active” throughout. For the same compound, the IC50 entry on Carbonic anhydrase 2 is “Not Active”. For the same compound, the inhibition constant (Ki) entry in assay [1] and in assay [5] was “Not Active” each time.
Take `CCN(CC)CCNC(=O)c1cc(Cl)c(N)cc1OC` [METOCLOPRAMIDE]: the IC50 result (in assay [1]; in assay [2]; on Cathepsin G; in assay [3]; in assay [4]; in assay [5]) was “Not Active” each time. At Carbonic anhydrase 2, the IC50 entry is on record as “Not Active”. The Ki entry in assay [1] and in assay [5] was “Not Active” throughout.
Take `CC(=O)O[C@]1(C(C)=O)CC[C@H]2[C@@H]3C[C@H](C)C4=CC(=O)CC[C@]4(C)[C@H]3CC[C@@]21C` [MEDROXYPROGESTERONE ACETATE]: the IC50 result (in assay [1]; in assay [2]; against Cathepsin G; in assay [3]; in assay [4]; in assay [5]) was “Not Active” throughout. Also, the IC50 entry on Carbonic anhydrase 2 was “Not Active”. Besides, the Ki entry in assay [1] and in assay [5] was “Not Active” each time.
Turning to `Cc1ccnc(NS(=O)(=O)c2ccc(N)cc2)n1` [SULFAMERAZINE], the half-maximal inhibitory concentration (IC50) entry (in assay [1]; in assay [2]; at Cathepsin G; in assay [3]; in assay [4]; in assay [5]) was “Not Active” in each case. Also, the Ki result in assay [1] and in assay [5] was “Not Active” each time.
Consider `O=C(c1ccccc1)c1ccc2n1CCC2C(=O)O` (stereo not given) [KETOROLAC], for which the IC50 result (in assay [1]; in assay [2]; against Cathepsin G; in assay [3]; in assay [4]; in assay [5]) was “Not Active” throughout. For the same compound, at Carbonic anhydrase 2, the IC50 entry is reported as “Not Active”. For the same compound, the Ki entry in assay [1] and in assay [5] was “Not Active” in each case.
As for `Cc1nnc(NS(=O)(=O)c2ccc(N)cc2)s1` [SULFAMETHIZOLE], the IC50 entry (in assay [1]; in assay [2]; at Cathepsin G; in assay [3]; in assay [4]; in assay [5]) was “Not Active” in each case. In addition, the IC50 entry against Carbonic anhydrase 2 is “Not Active”. In addition, the Ki result in assay [1] and in assay [5] was “Not Active” in each case.
Consider `CCC(C)(C)C(=O)O[C@H]1C[C@@H](C)C=C2C=C[C@H](C)[C@H](CC[C@@H]3C[C@@H](O)CC(=O)O3)[C@H]21` [SIMVASTATIN], for which the IC50 entry (in assay [1]; in assay [2]; against Cathepsin G; in assay [3]; in assay [4]; in assay [5]) was “Not Active” in each case. Also, the IC50 result at Carbonic anhydrase 2 is “Not Active”. Further, the Ki entry in assay [1] and in assay [5] was “Not Active” throughout.
In the case of `Oc1ccc(/C=C/c2cc(O)cc(O)c2)cc1` [RESVERATROL], the IC50 entry (in assay [1]; in assay [2]; on Cathepsin G; in assay [3]; in assay [4]; in assay [5]) was “Not Active” throughout. At Carbonic anhydrase 2, the IC50 result was “Not Active”. For the same compound, the Ki result in assay [1] and in assay [5] was “Not Active” each time.
As to `Cc1cnc(NC(=O)C2=C(O)c3ccccc3S(=O)(=O)N2C)s1` [MELOXICAM], the IC50 entry (in assay [1]; in assay [2]; on Cathepsin G; in assay [3]; in assay [4]; in assay [5]) was “Not Active” each time. In addition, on Carbonic anhydrase 2, the IC50 entry is listed as “Not Active”. The Ki entry in assay [1] and in assay [5] was “Not Active” each time.
For `CC[C@H](C)[C@@H](CO[C@@H](Cc1ccccc1)C(=O)N[C@@H](CCS(C)(=O)=O)C(=O)OC(C)C)NC[C@@H](N)CS`, the concentration for half-maximal inhibition (IC50) result in assay [1] is “Not Active”; in assay [2], “Not Active”; at Cathepsin G it was “Not Active”; in assay [3] it was “Not Active”; in assay [4], “Not Active”; in assay [5] (read-out: IC50), 4.5 µM. In addition, the half-maximal inhibitory concentration (IC50) entry against Carbonic anhydrase 2 is listed as “Not Active”. The figures for the inhibition constant Ki entry in assay [1] and in assay [5] (read-out: Ki) were “Not Active” and 2.89 µM, respectively.
Turning to `O=C1CC[C@@]2(O)[C@H]3Cc4ccc(O)c5c4[C@@]2(CCN3CC2CC2)[C@H]1O5` [NALTREXONE], the IC50 entry (in assay [1]; in assay [2]; against Cathepsin G; in assay [3]; in assay [4]; in assay [5]) was “Not Active” throughout. Besides, the IC50 result against Carbonic anhydrase 2 is listed as “Not Active”. The Ki result in assay [1] and in assay [5] was “Not Active” in each case.
With `CNCCCC12CCC(c3ccccc31)c1ccccc12` [MAPROTILINE], the IC50 entry (in assay [2]; at Cathepsin G; in assay [3]; in assay [4]; at Carbonic anhydrase 2) was “Not Active” in each case.
In the case of `CN(C)CCC=C1c2ccccc2COc2ccccc21` [DOXEPIN], the IC50 entry (in assay [2]; against Cathepsin G; in assay [3]; in assay [4]; on Carbonic anhydrase 2) was “Not Active” throughout.
With `Cc1cc2c(s1)Nc1ccccc1N=C2N1CCN(C)CC1` [OLANZAPINE], the IC50 entry (in assay [2]; against Cathepsin G; in assay [3]; in assay [4]; at Carbonic anhydrase 2) was “Not Active” throughout.
